# In patent publication US20100113608A1, “Tryptase Enzyme Inhibiting Aminothiophenols” (priority 2008, published 2010):
# What was measured:
# [1] = biological target: T1, tryptase enzyme (Homo sapiens, UniProt P20231); assay: Tryptase enzyme inhibition (cleavage of tosyl-gly-pro-lys-pNA, absorbance at 405 nm); assay type: biochemical; settings: 2 h at 37° C.; relative to controls
# T1 construct: purchased Millipore Inc., Westbury, Mass
# Protocol: A. Tryptase Enzyme Inhibition
# Tryptase activity was determined by monitoring the production of chromophore p-nitroaniline (pNA) generated by the cleavage of tosyl-gly-pro-lys-pNA by the tryptase enzyme according to the manufacturer's protocol (Millipore Inc., Westbury, Mass.). In a 96-well format, 10 μL of tryptase was added to 10 μL of sample, followed by 20 μL of tosyl-gly-pro-lys-pNA and 160 μL of 1× reaction buffer and incubated for 2 h at 37° C. After the incubation, absorbance at 405 nm was measured in each well using a Tecan M200 microplate reader.
# [2] = Pharmacokinetic analysis: serum and urine by DART TOF-MS after a 100 mg lozenge; assay type: in vivo, human; settings: humans
# Protocol: Five healthy consenting female adults ranging in age from 23 to 57 were took diets free of flavonoids and any NSAIDs. A certified individual collected blood samples at several time intervals between 0 and 480 min after compounds of the present invention were ingested in a mixture. Immediately after the time zero blood samples were collected, a single 100 mg dose of the composition was administered as a lozenge. Blood samples were handled with approved protocols and precautions, centrifuged to remove cells and the serum fraction was collected and frozen. Blood was not treated with heparin to avoid any analytical interference. Urine samples were collected from the same five subjects on a time course (0 to 8 h). The cells were removed from the blood samples by centrifugation and the serum was collected. Serum samples were prepared for DART TOF-MS analysis by extraction with an equal volume of neat ethanol (USP) to minimize background of proteins, peptides, and polysaccharides present in serum. The ethanol extract was centrifuged for 10 min at 4° C., the supernatant was removed, concentrated to 200 μL volume, and 50 μL of an internal standard was added. Urine samples were not treated and used directly for DART TOF-MS. DART TOF-MS analyses were conducted as described above.
# [3] = in a mixture, slow-dissolve lozenge
# T1 sequence (P20231 31-275): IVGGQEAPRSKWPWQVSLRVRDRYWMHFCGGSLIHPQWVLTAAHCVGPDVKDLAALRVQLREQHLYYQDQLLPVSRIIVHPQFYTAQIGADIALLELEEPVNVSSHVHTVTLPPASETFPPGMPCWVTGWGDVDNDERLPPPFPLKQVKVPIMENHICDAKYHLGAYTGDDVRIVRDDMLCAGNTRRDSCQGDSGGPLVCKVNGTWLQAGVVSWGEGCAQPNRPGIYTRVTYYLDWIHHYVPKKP
smiles,measurement,setting,value
"CCCCCN(c1ccc(N)cc1)c1ccc(S)cc1.Cl [III, 4-[(4-Amino-phenyl)-pentyl-amino]benzenethiol hydrochloride salt]",IC50,[1],493 µM
same,Time to appearance in urine,[2]; [3],≤ 1 h
same,Time to first appearance in bloodstream (serum),[2]; [3],≤ 10 min
same,Time up to which present in the blood post-ingestion,[2]; [3],up to 360 min
same,Time up to which present in urine post-ingestion,[2]; [3],up to 8 h
same,Detection in blood at 480 min after ingestion,"[2]; lozenge, 480 min",not detected
